Here are results for 18 compounds from US10954214B2 (Janssen Pharmaceutica NV, priority 2016, dated 2021).

In test [1] the target is full-length MALT1 protein (Strep-MALT1(1-824)-His) (Homo sapiens (Human), UniProt Q9UDY8). The test is described as follows: MALT1 Biochemical Protease Assay (Ac-LRSR-AMC substrate). The note with it: 10 nM FL MALT1, 200 μM Ac-LRSR-AMC, 4 h at RT; read-out: MALT1_Biochemical activity (Ac-LRSR-amc) IC50. In outline:
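Fluorescence from AMC release off the quenched LRSR substrate was read after a 4 h reaction at RT. Values were normalised to no-enzyme and uninhibited controls and fitted for IC50 and Hill coefficient.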

In test [2] the test system is IL6 secretion by TMD8 ABC-DLBCL cells. The test is described as follows: Human IL6 Mesoscale assay (TMD-8). The note with it: Homo sapiens, TMD8; TMD-8 cells, 24 h. Type of test: cell-based. In outline: (§1)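 TMD8 or OCI-LY3 cells (100,000/well) were exposed to compounds in 9 twofold dilutions from 15 μM to 58.6 nM (0.3% DMSO) for 24 h at 37 °C. Supernatant IL6 and IL10 were quantified by MSD electrochemiluminescence immunoassay. DMSO defined maximum signal and BTK inhibitor RN486 (30 nM–131 pM) defined maximum inhibition.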

For test [3], the system named is IL10 secretion by TMD8 ABC-DLBCL cells. Kind of test: Human IL10 Mesoscale assay (TMD-8). Type of test: cell-based. The note with it: Homo sapiens, TMD8; TMD-8 cells, 24 h. In outline:
as §1

The subject of test [4] is OCI-Ly3 cells. Kind of test: 4-day proliferation assay, OCI-Ly3. The note with it: Homo sapiens, 96 h, 4 days incubation, CellTiterGLO, read-out: Anti-proliferation: OCI-LY-3 IC50. Type of test: cell-based, human. In outline: (§2)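 Each line was plated at 10,000 cells per well for linear growth, with no beta-mercaptoethanol during the assay. OCI-Ly3 cells were below passage 10.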
(In general: ATP-based viability assays read luminescence as a measure of living cells.)

The test system of test [5] is TMD8 cells. Kind of test: 4-day proliferation assay, TMD8. Type of test: cell-based. The following applies: Homo sapiens, 96 h, 4 days incubation, CellTiterGLO, read-out: Anti-proliferation: TMD-8 IC50. In outline: as §2

Each structure is given as a SMILES string.

full-length MALT1 protein (Strep-MALT1(1-824)-His), sequence (Q9UDY8 whole entry): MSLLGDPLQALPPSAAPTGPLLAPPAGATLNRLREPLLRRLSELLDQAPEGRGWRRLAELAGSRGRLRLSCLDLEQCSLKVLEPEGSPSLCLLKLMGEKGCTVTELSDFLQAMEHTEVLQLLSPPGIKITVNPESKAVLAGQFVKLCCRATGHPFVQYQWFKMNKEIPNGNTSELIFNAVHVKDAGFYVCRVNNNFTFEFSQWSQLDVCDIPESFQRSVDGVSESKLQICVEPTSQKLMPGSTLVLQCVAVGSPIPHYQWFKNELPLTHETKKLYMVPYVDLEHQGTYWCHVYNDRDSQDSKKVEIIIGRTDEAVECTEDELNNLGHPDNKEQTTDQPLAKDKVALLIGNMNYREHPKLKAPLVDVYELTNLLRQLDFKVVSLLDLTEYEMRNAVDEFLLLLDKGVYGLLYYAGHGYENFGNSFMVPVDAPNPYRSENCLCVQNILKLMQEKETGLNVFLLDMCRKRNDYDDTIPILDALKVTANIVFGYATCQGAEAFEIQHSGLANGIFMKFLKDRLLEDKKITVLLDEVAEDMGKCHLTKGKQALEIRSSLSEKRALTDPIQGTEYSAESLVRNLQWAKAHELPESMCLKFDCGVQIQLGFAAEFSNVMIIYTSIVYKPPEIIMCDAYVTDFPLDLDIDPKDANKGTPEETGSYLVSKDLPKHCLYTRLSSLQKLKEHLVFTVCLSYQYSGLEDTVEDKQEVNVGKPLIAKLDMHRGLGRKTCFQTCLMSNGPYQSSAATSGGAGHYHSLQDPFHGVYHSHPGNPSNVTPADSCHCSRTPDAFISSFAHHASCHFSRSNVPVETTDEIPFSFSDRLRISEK

Turning to `Nc1cnn(-c2ncc(NC(=O)c3cnn(-c4cccc5c(=O)[nH]ccc45)c3C(F)(F)F)cc2Cl)n1` [Cpd 134, N-(6-(4-amino-2H-1,2,3-triazol-2-yl)-5-chloropyridin-3-yl)-1-(1-oxo-1,2-dihydroisoquinolin-5-yl)-5-(trifluoromethyl)-1H-pyrazole-4-carboxamide], the IC50 in test [1] was 20 nM; in test [2], 58 nM; in test [3], 46 nM; in test [4], 1010 nM; in test [5], 20000 nM.
Regarding `O=C(Nc1cnc(-n2ncc(CO)n2)c(Cl)c1)c1cnn(-c2cccc3ncccc23)c1C(F)(F)F` [Cpd 136, N-(5-chloro-6-(4-(hydroxymethyl)-2H-1,2,3-triazol-2-yl)pyridin-3-yl)-1-(quinolin-5-yl)-5-(trifluoromethyl)-1H-pyrazole-4-carboxamide], the IC50 was 21 nM in test [1]; 45 nM in test [2]; 31 nM in test [3]; 414 nM in test [4]; 2290 nM in test [5].
Take `N#Cc1cc(NC(=O)c2cnn(-c3ccnc4ccccc34)c2C(F)(F)F)cnc1-n1nccn1` [Cpd 138, N-(5-cyano-6-(2H-1,2,3-triazol-2-yl)pyridin-3-yl)-1-(quinolin-4-yl)-5-(trifluoromethyl)-1H-pyrazole-4-carboxamide]: the IC50 in test [1] turned out to be 23 nM; in test [2], 245 nM; in test [3] it was 126 nM; in test [4], 447 nM; in test [5] it was 2510 nM.
As to `N#Cc1cc(NC(=O)c2cnn(-c3ncnn4cccc34)c2C(F)(F)F)cnc1-n1nccn1` [Cpd 140, N-(5-cyano-6-(2H-1,2,3-triazol-2-yl)pyridin-3-yl)-1-(pyrrolo[2,1-f][1,2,4]triazin-4-yl)-5-(trifluoromethyl)-1H-pyrazole-4-carboxamide], the IC50 in test [1] was 24 nM; in test [2], 72 nM; in test [3], 28 nM; in test [4], 1170 nM; in test [5] it was 5370 nM.
Taken in the same sequence, the figures for `O=C(Nc1cnc(-n2nccn2)c(Cl)c1)c1cnn(-c2nccn3nccc23)c1C(F)(F)F` [Cpd 141, N-(5-chloro-6-(2H-1,2,3-triazol-2-yl)pyridin-3-yl)-1-(pyrazolo[1,5-a]pyrazin-4-yl)-5-(trifluoromethyl)-1H-pyrazole-4-carboxamide] were 25 nM, 51 nM, 39 nM, 505 nM and 6030 nM.
On to `N#Cc1cc(NC(=O)c2cnn(-c3ncnc4sccc34)c2C(F)(F)F)cnc1-n1nccn1` [Cpd 142, N-(5-cyano-6-(2H-1,2,3-triazol-2-yl)pyridin-3-yl)-1-(thieno[2,3-d]pyrimidin-4-yl)-5-(trifluoromethyl)-1H-pyrazole-4-carboxamide], for which the IC50 in test [1] is 26 nM; in test [2], 107 nM; in test [3] it was 17 nM; in test [4], 380 nM; in test [5] it was 832 nM.
For the compound `N#Cc1cc(NC(=O)c2cnn(-c3nccc4ccsc34)c2C(F)(F)F)cnc1-n1nccn1` [Cpd 143, N-(5-cyano-6-(2H-1,2,3-triazol-2-yl)pyridin-3-yl)-1-(thieno[2,3-c]pyridin-7-yl)-5-(trifluoromethyl)-1H-pyrazole-4-carboxamide], the IC50 in test [1] turned out to be 26 nM; in test [2], 98 nM; in test [3], 56 nM; in test [4] it was 423 nM; in test [5], 9550 nM.
Turning to `NC(=O)c1cnn(-c2ncc(NC(=O)c3cnn(-c4cccc5ncccc45)c3C(F)(F)F)cc2Cl)n1` [Cpd 144, 2-(3-chloro-5-(1-(quinolin-5-yl)-5-(trifluoromethyl)-1H-pyrazole-4-carboxamido)pyridin-2-yl)-2H-1,2,3-triazole-4-carboxamide], the IC50 was 28 nM in test [1]; 52 nM in test [2]; 49 nM in test [3]; 482 nM in test [4]; 2570 nM in test [5].
Taken in the same sequence, the figures for `N#Cc1cc(NC(=O)c2cnn(-c3cncc4ncccc34)c2C(F)(F)F)cnc1-n1nccn1` [Cpd 145, N-(5-cyano-6-(2H-1,2,3-triazol-2-yl)pyridin-3-yl)-1-(1,7-naphthyridin-5-yl)-5-(trifluoromethyl)-1H-pyrazole-4-carboxamide] were 28 nM, 126 nM, 47 nM, 626 nM and 4570 nM.
Taken in the same sequence, the figures for `O=C(Nc1cnc(-n2nccn2)c(C(F)(F)F)c1)c1cnn(-c2cccc3ncccc23)c1C(F)(F)F` [Cpd 146, N-(6-(2H-1,2,3-triazol-2-yl)-5-(trifluoromethyl)pyridin-3-yl)-1-(quinolin-5-yl)-5-(trifluoromethyl)-1H-pyrazole-4-carboxamide] were 32 nM, 331 nM, 132 nM, 337 nM and 1020 nM.
Consider `O=C(Nc1cnc(-n2nccn2)c(Cl)c1)c1cnn(-c2nccn3cccc23)c1C(F)(F)F` [Cpd 147, N-(5-chloro-6-(2H-1,2,3-triazol-2-yl)pyridin-3-yl)-1-(pyrrolo[1,2-a]pyrazin-1-yl)-5-(trifluoromethyl)-1H-pyrazole-4-carboxamide], for which the IC50 in test [1] was found to be 30 nM; in test [2], 200 nM; in test [3], 85 nM; in test [4], 966 nM; in test [5], 11500 nM.
Regarding `N#Cc1cc(NC(=O)c2cnn(-c3nccn4cccc34)c2C(F)(F)F)cnc1-n1nccn1` [Cpd 148, N-(5-cyano-6-(2H-1,2,3-triazol-2-yl)pyridin-3-yl)-1-(pyrrolo[1,2-a]pyrazin-1-yl)-5-(trifluoromethyl)-1H-pyrazole-4-carboxamide], the IC50 was 32 nM in test [1]; 105 nM in test [2]; 112 nM in test [3]; 692 nM in test [4]; 3800 nM in test [5].
Regarding `Cn1nnc(-c2ncc(NC(=O)c3cnn(-c4cccc5ncccc45)c3C(F)(F)F)cc2C#N)n1` [Cpd 149, N-(5-cyano-6-(2-methyl-2H-tetrazol-5-yl)pyridin-3-yl)-1-(quinolin-5-yl)-5-(trifluoromethyl)-1H-pyrazole-4-carboxamide], the IC50 in test [1] amounted to 29 nM; in test [2], 912 nM; in test [3] it was 2630 nM; in test [4], 759 nM; in test [5] it was 4360 nM.
Taken in the same sequence, the figures for `N#Cc1cc(NC(=O)c2cnn(-c3ccnc4ccoc34)c2C(F)(F)F)cnc1-n1nccn1` [Cpd 150, N-(5-cyano-6-(2H-1,2,3-triazol-2-yl)pyridin-3-yl)-1-(furo[3,2-b]pyridin-7-yl)-5-(trifluoromethyl)-1H-pyrazole-4-carboxamide] were 8 nM, 457 nM, 178 nM, 282 nM and greater than 7940 nM.
Turning to `N#Cc1cc(NC(=O)c2cnn(-c3cnc(N)c4ccccc34)c2C(F)(F)F)cnc1-n1nccn1` [Cpd 156, 1-(1-aminoisoquinolin-4-yl)-N-(5-cyano-6-(2H-1,2,3-triazol-2-yl)pyridin-3-yl)-5-(trifluoromethyl)-1H-pyrazole-4-carboxamide], the IC50 is 22 nM in test [1]; 2510 nM in test [2]; 2340 nM in test [3]; 776 nM in test [4]; 5250 nM in test [5].
With `COCc1cnn(-c2ncc(NC(=O)c3cnn(-c4cccc5ncccc45)c3C(F)(F)F)cc2Cl)n1` [Cpd 173, N-(5-chloro-6-(4-(methoxymethyl)-2H-1,2,3-triazol-2-yl)pyridin-3-yl)-1-(quinolin-5-yl)-5-(trifluoromethyl)-1H-pyrazole-4-carboxamide], the IC50 in test [1] is 59 nM; in test [2], 550 nM; in test [3] it was 240 nM; in test [4] it was 1730 nM; in test [5], 2690 nM.
With `O=C(Nc1ccc(-n2cc(CO)cn2)c(Cl)c1)c1cnn(-c2cccc3ncccc23)c1C(F)(F)F` [Cpd 175, N-(3-chloro-4-(4-(hydroxymethyl)-1H-pyrazol-1-yl)phenyl)-1-(quinolin-5-yl)-5-(trifluoromethyl)-1H-pyrazole-4-carboxamide], the IC50 in test [1] is 47 nM; in test [2], greater than 3020 nM; in test [3] it was 204 nM; in test [4] it was 1080 nM; in test [5], 1230 nM.
On to `N#Cc1cc(NC(=O)c2cnn(-c3cccc4ncccc34)c2C(F)(F)F)cnc1-n1ncc(CO)n1` [Cpd 177, N-(5-cyano-6-(4-(hydroxymethyl)-2H-1,2,3-triazol-2-yl)pyridin-3-yl)-1-(quinolin-5-yl)-5-(trifluoromethyl)-1H-pyrazole-4-carboxamide], for which the IC50 is 44 nM in test [1]; 933 nM in test [2]; 363 nM in test [3]; 1710 nM in test [4]; 6610 nM in test [5].
